{
  "source": "patent US9862684B2",
  "about": "“Modulation of K2P channels” (The Regents of the University of California, priority 2013, dated 2018)",
  "key": {"[1]": {"biological_target": "T1, K2P4.1 (TRAAK) (Mus musculus, UniProt O88454)", "T1 construct": "expressed in transfected cells; host or cells: Xenopus oocytes", "T1 sequence (O88454 1-398)": "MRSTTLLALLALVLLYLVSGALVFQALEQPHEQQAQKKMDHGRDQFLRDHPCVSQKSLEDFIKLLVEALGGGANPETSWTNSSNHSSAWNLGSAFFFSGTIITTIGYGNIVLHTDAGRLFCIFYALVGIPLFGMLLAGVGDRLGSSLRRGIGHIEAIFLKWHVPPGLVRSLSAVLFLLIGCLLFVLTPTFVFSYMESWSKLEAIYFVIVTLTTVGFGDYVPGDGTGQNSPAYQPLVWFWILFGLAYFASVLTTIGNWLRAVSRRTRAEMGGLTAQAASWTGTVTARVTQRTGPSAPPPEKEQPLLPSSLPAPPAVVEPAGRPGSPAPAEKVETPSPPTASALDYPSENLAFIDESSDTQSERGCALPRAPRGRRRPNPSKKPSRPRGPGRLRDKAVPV", "assay": "Two-electrode voltage clamp, Xenopus oocytes expressing K2P4.1 (TRAAK)", "assay_type": "cell-based, Murine", "experimental": "(§1) FIG. 7 ML67-33 is a selective activator of heat- and mechanosensitive K2P channels. a-f, Exemplar I-V curves showing the effect of ML67-33 on a, K2P10.1 (TREK-2), b, K2P4.1 (TRAAK), c, K2P3.1 (TASK-1), d, K2P9.1 (TASK-3), e, K2P5.1 (TASK-2), and f, K2P18.1 (TRESK) measured in Xenopus oocytes in 2 mM [K^+]o pH 7.4. Currents were elicited by a voltage ramp from −150 to 50 mV, from a holding potential of −80 mV. g, Quantification of the effect of ML67-33 on the indicated channels. Data (mean±s.e., n≧6, N≧2) was normalized to basal channel activity and fitted to the Hill equation. […] Error bars indicate s.e., n≧6, N≧2.\n(§2) Murine K2P channels were cloned into pGEMHE/pMO {Bagriantsev, 2011}, IRES-GFP (Invitrogen), or pYES2-MET25 (high copy 2μ, URA3) {Minor, 1999} for expression in oocytes, HEK-293T cells, and yeast, respectively, using standard molecular biology procedures, and verified by DNA sequencing.\n(§3) Two-electrode voltage clamp recordings were performed from defolliculated stage V-VI Xenopus oocytes 24-48 hours after injection with 0.015-6.0 ng cRNA, using microelectrodes (0.3-3.0 MΩ) filled with 3M KCl. Data was acquired using the GeneClamp 500B (MDS Analytical Technologies) amplifier controlled by the pClamp software (Molecular Devices), and digitized at 1 kHz using Digidata 1332A (MDS Analytical Technologies). […]"}, "[2]": {"biological_target": "T2, K2P9.1 (TASK-3) (Mus musculus, UniProt Q3LS21)", "T2 construct": "expressed in transfected cells; host or cells: Xenopus oocytes", "T2 sequence (Q3LS21 whole entry)": "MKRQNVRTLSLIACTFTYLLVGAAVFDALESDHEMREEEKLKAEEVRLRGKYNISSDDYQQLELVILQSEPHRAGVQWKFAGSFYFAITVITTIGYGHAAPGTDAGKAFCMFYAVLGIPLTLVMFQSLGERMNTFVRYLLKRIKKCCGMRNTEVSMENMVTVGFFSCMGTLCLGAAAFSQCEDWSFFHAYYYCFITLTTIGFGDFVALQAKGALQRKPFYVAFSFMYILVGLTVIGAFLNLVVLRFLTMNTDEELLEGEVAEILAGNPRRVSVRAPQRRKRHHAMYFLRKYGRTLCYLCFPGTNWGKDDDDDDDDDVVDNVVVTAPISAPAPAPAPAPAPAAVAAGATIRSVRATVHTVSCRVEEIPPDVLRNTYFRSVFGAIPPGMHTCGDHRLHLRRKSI", "assay": "Two-electrode voltage clamp, Xenopus oocytes expressing K2P9.1 (TASK-3)", "assay_type": "cell-based, Murine", "experimental": "as §1, §2\nTwo-electrode voltage clamp recordings were performed from defolliculated stage V-VI Xenopus oocytes 24-48 hours after injection with 0.015-6.0 ng cRNA, using microelectrodes (0.3-3.0 MΩ) filled with 3M KCl. Data was acquired using the GeneClamp 500B (MDS Analytical Technologies) amplifier controlled by the pClamp software (Molecular Devices), and digitized at 1 kHz using Digidata 1332A (MDS Analytical Technologies). Recording solutions (mM): 2K (96 NaCl, 2 KCl, 1.8 CaCl2, 2 MgCl2), 90K (90 KCl, 8 NaCl, 1.8 CaCl2, 2 MgCl2), were buffered 5 mM HEPES pH 7.4. For K2P recordings, currents we elicited by a 1 second long ramp from −150 to +50 mV from a holding potential of −80 mV (2K), or −100 to +50 mV from a holding potential of 0 mV (90K). For KCNQ2 recordings, currents were elicited by a step protocol from −120 to 60 mV, in 20 mV increments, from a holding potential of −80 mV. Patch-clamp recordings from HEK-293T cells were performed using microelectrodes (2-3 MΩ) filled with 1M KCl. Data was acquired using the Axopatch 200B amplifier controlled by pClamp software, and digitized at 1 kHz using Digidata 1332A. […]"}, "[3]": {"biological_target": "T3, K2P5.1 (TASK-2) (Mus musculus, UniProt F6V9U5)", "T3 construct": "expressed in transfected cells; host or cells: Xenopus oocytes", "T3 sequence (F6V9U5 1-502)": "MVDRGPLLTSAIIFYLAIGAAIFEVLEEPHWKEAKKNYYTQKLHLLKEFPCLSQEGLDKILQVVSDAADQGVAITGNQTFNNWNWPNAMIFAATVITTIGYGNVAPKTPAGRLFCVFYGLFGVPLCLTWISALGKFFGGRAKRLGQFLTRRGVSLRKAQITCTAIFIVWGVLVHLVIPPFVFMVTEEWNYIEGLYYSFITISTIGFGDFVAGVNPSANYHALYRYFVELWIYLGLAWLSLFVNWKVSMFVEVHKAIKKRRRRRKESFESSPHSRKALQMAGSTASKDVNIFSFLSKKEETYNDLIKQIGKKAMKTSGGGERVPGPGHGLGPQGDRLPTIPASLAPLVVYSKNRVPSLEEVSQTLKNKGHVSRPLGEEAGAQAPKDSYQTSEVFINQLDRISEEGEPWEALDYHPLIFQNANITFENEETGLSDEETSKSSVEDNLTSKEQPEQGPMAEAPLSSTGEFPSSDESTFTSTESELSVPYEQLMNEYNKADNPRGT", "assay": "Two-electrode voltage clamp, Xenopus oocytes expressing K2P5.1 (TASK-2)", "assay_type": "cell-based, Murine", "experimental": "as §1, §2, §3"}, "[4]": {"biological_target": "T4, Kv7.2 (KCNQ2) (Homo sapiens, UniProt O43526)", "T4 construct": "expressed in transfected cells; host or cells: Xenopus oocytes", "assay": "Two-electrode voltage clamp, Xenopus oocytes expressing Kv7.2 (KCNQ2)", "assay_type": "cell-based", "conditions": "ML67-33 at 100 μM; ML67 concentration not stated", "experimental": "FIG. 12 Exemplar I-V curves showing the effect of 100 μM ML67-33 Kv7.2 (KCNQ2) measured by two-electrode voltage clamp in Xenopus oocytes in 2 mM [K^+]o pH 7.4. Currents were elicited by a step protocol from −120 to 60 mV, in 20 mV increments, from a holding potential of −80 mV.\nTwo-electrode voltage clamp recordings were performed from defolliculated stage V-VI Xenopus oocytes 24-48 hours after injection with 0.015-6.0 ng cRNA, using microelectrodes (0.3-3.0 MΩ) filled with 3M KCl. Data was acquired using the GeneClamp 500B (MDS Analytical Technologies) amplifier controlled by the pClamp software (Molecular Devices), and digitized at 1 kHz using Digidata 1332A (MDS Analytical Technologies). Recording solutions (mM): 2K (96 NaCl, 2 KCl, 1.8 CaCl2, 2 MgCl2), 90K (90 KCl, 8 NaCl, 1.8 CaCl2, 2 MgCl2), were buffered 5 mM HEPES pH 7.4. For K2P recordings, currents we elicited by a 1 second long ramp from −150 to +50 mV from a holding potential of −80 mV (2K), or −100 to +50 mV from a holding potential of 0 mV (90K). For KCNQ2 recordings, currents were elicited by a step protocol from −120 to 60 mV, in 20 mV increments, from a holding potential of −80 mV. Patch-clamp recordings from HEK-293T cells were performed using microelectrodes (2-3 MΩ) filled with 1M KCl. Data was acquired using the Axopatch 200B amplifier controlled by pClamp software, and digitized at 1 kHz using Digidata 1332A. Recording solutions (mM): intracellular (145 KCl, 5 EGTA, 3 MgCl2,) extracellular (150 NaCl, 5 KCl, 3 MgCl2, 1 CaCl2) were buffered with 5 mM HEPES pH 7.2 and 7.4, respectively. Currents were elicited by a 1 second long ramp from −150 to +50 mV from a holding potential of −80 mV. Data were fitted with a modified Hill's equation: I=Imin+(Imax−Imin)/(1+10^((Log EC50−Log [C])*H)), where Imax and Imin are maximal and minimal current values, respectively, EC50 is a half-maximal effective concentration of the compound, and H is the Hill coefficient."}, "[5]": {"conditions": "at 100 μM (FIG. 7 legend), ** in Table 1"}},
  "note": "Where “and” joins values, the source holds several entries; their conditions need not be identical. Equal entries are not always repeated.",
  "data": [
    {"molecule": "CC1(C)c2cc(Cl)ccc2N(CCc2nnn[nH]2)c2ccc(Cl)cc21", "note": "[ML67-33, 2,7-dichloro-9,9-dimethyl-10-[2-(1H-tetrazol-5-yl)ethyl]acridine]", "values": [
      {"measurement": "EC50", "setting": "[1]; Xenopus oocytes, 2 mM [K+]o pH 7.4", "value": "27.3 ± 1.2", "unit": "µM"},
      {"measurement": "Emax (fold)", "setting": "[1]; [5]", "value": "14.7±1.1 fold and 14.7±1.12 fold"},
      {"measurement": "functional effect (in words)", "setting": "[2]; applied at 100 μM", "value": "little or no functional effects"},
      {"measurement": "Emax at 100 μM", "setting": "[2]; at 100 μM (FIG. 7 legend)", "value": "2.0±0.1"},
      {"measurement": "Emax (fold) at 150 μM", "setting": "[2]; at 150 μM", "value": "2.1 ± 0.4", "unit": "at 150 μM fold"},
      {"measurement": "functional effect (in words)", "setting": "[3]; applied at 100 μM", "value": "little or no functional effects"},
      {"measurement": "Emax (fold)", "setting": "[3]; [5]", "value": "1.7±0.3", "unit": "fold"},
      {"measurement": "effect on Kv7.2 (KCNQ2) (in words)", "setting": "[4]", "value": "no effect"}
    ]}
  ]
}
